The results in this text go back to patent US11767286B2, “Phenylpropionate compound, preparation method for same, and applications thereof” (SUZHOU PHARMAVAN CO., LTD, priority 2017, dated 2023).

The test system of series [1] is rats with acute cerebral ischemia-reperfusion. As to the kind of experiment: Cerebral infarction area of rats with acute cerebral ischemia-reperfusion (MCAO, suture method). In kind it is in vivo, SD rats. Set-up: Cerebral Infarction Area: unit not given here. Conditions: n=5; for Cerebral Infarction Area: 4 mg/kg iv 2 h after reperfusion (2 h MCAO), sampled 4 h after administration; for inhibition in vivo at 4 mg/kg: Rattus norvegicus, 4 h, 4 mg/kg iv 2 h after reperfusion, vs solvent control, read-out: Percentage of Cerebral Infarction Area Reduction. As for the experimental part: (§1) Trial method: Effects on inflammatory factors and blood viscosity of rats with acute cerebral ischemia-reperfusion: 70 Male SD rats underwent an MACO surgery by a suture method, and after the surgery, alive rats were randomly grouped (into 7 groups, the number of successful animals in each group was guaranteed to be 6 to 8). Blood perfusion was recovered 2 h after MCAO, and corresponding trial medicaments were intravenously injected 2 h after blood reperfusion. 4 hours after the administration, blood was collected and the rats were sacrificed to take out brain tissues. The brain tissues and part of the blood were centrifuged to collect serum which was detected for inflammatory factors, and part of the blood was detected for blood viscosity by using a blood viscometer. Detected indicators: cerebral infarction area; inflammatory factors IL-1β and TNF-α; and blood viscosity.
Table 1 lists results of effects of phenylpropionate compounds (4 mg/kg) on cerebral infarction area of rats with acute cerebral ischemia (n=5).

For series [2] the test system is unchanged. As to the kind of experiment: Blood viscosity of rats with acute cerebral ischemia-reperfusion (blood viscometer). The series is classed as in vivo, SD rats. Set-up: unit not given here. The conditions noted are these: 4 mg/kg iv 2 h after reperfusion; blood 4 h after administration; n=5. As for the experimental part:
as §1
Table 2 lists results of effects of phenylpropionate compounds (4 mg/kg) on blood viscosity of rats (n=5).

For a further series, the system named is TNF-α. As to the kind of experiment: Inflammatory factor TNF-α in blood and brain tissues of rats with acute cerebral ischemia-reperfusion. In kind it is in vivo, SD rats. Conditions: 4 mg/kg iv 2 h after reperfusion; 4 h after administration; n=5. As to the method: as §1
(§2) Table 3 lists results of effects of phenylpropionate compounds (4 mg/kg) on inflammatory factors in blood and brain tissues of rats (n=5).

For another series, the system named is IL-1β. Kind of series: Inflammatory factor IL-1β in blood and brain tissues of rats with acute cerebral ischemia-reperfusion. The series is classed as in vivo, SD rats. Conditions: 4 mg/kg iv 2 h after reperfusion; 4 h after administration; n=5. As for the experimental part: as §1, §2
Series [3] concerns platelet aggregation induced with ADP. Kind of series: Maximum platelet aggregation rate of rabbits, induced with ADP. Conditions: rabbit plasma, 4 mg/kg as printed, n=3; for inhibition at 4 mg/kg: Oryctolagus cuniculus, Platelet. In kind it is cell-based. As to the method:
(§3) Effects on maximum platelet aggregation rate of rabbits: 3 Rabbits were anesthetized, and blood was collected from the heart to obtain 14 parts of plasma for each rabbit (1 ml per part of plasma). 7 Parts were induced with ADP to allow platelet aggregation, and 7 parts were induced with a platelet activating factor. After the induction, a solvent, positive control drug aspirin, and 5 samples to be trialed were separately added to the plasma, and maximum platelet aggregation rate was detected with a platelet aggregation meter. The trials were repeated 3 times, and an average was taken. Detected indicator: maximum platelet aggregation rate.
(§4) Table 4 lists results of effects of phenylpropionate compounds (4 mg/kg) on platelet aggregation rate of rabbits (n=3).

The subject of series [4] is platelet aggregation induced with a platelet activating factor. Kind of series: Maximum platelet aggregation rate of rabbits, induced with PAF. The series is classed as cell-based. Conditions: rabbit plasma, 4 mg/kg as printed; for inhibition at 4 mg/kg: Oryctolagus cuniculus, Platelet, n=3, read-out: Inhibiton rate on Aggregation; for Maximum Aggregation Rate: n=3. As to the method: as §3, §4

In series [5] the test system is SD rat model of focal ischemia-reperfusion. Kind of series: Dose-effect relationship in SD rat model of focal ischemia-reperfusion (MCAO). The series is classed as in vivo, SD rats. Conditions: 4.0 mg/kg, given 2 h after reperfusion, mean ± standard error; for Score of Symptoms of Neurological Deficits: 48 h, modified Bederson 5-point scale; for Infarction area: evaluated after 48 h. As to the method: In this example, phenylpropionate compounds were studied for dose-effect relationship, with D-bornyl ferulate (administrated at 4.0 mg/kg) and D-tanshinol borneol ester (administrated at 4.0 mg/kg) as positive control drugs. Structures of D-bornyl ferulate (Patent Application No.: 201510243181.5) and D-tanshinol borneol ester compounds are as follows:
Trial method: A cerebral ischemia reperfusion model of middle cerebral artery occlusion (MCAO) was prepared by an internal carotid artery suture method. An animal was anesthetized with 10% chloral hydrate (3.6 mL/kg) and then fixed on an operating table in a supine position. Its skin was disinfected, and a midline incision was made on the neck. The right common carotid artery, external carotid artery, and internal carotid artery were separated, the vagus nerve was gently striped off, and the external carotid artery was ligated and cut. The common carotid artery was clamped at the proximal end. […] The nylon thread was advanced through the bifurcation of the common carotid artery into the internal carotid artery, and then was slowly inserted until there was slight resistance (about 20 mm from the bifurcation) to block all the blood supply to the middle cerebral artery. 2 h after cerebral ischemia, the nylon thread was gently pulled out to restore blood supply for reperfusion, and the neck skin was sutured and disinfected. The animal was put back in a cage and raised. During the modeling operation, animals with abnormal conditions due to anesthesia, surgery, etc. were excluded, and successfully modeled animals were randomly grouped. Schemes were set according to different trial doses, and drug treatment was given 2 h after cerebral ischemia-reperfusion. Death conditions were recorded every day after the surgery, and indicators were evaluated after 48 h. In the whole trial process, general conditions were observed, mainly including: death, coma, breathing, urine and feces traits, hair colors, mental status, vomiting and vomitus, bleeding, convulsion, spasm, etc. Abnormal animals due to unexpected factors were excluded. Finally, unblinding was conducted by a person who made blind trials.
Evaluated indicator: (1) Evaluation of symptoms of neurological deficits: The symptoms of neurological deficits were evaluated by using a modified Bederson 5-point scale. A single-blind method was used for evaluating the symptoms of neurological deficits in rats with brain trauma. That is, a trial designer marked animals in accordance with groups, and an experimenter who scored the symptoms of neurological deficits had no knowledge of how the animals were grouped. After scoring was completed, the scorer submitted scoring results for various marks to the designer, and the designer performed unblinding to obtain scores of animals in each trial group. (2) Measurement of cerebral infarction area: A method reported in the literature was used. An animal was anesthetized with 10% chloral hydrate and decapitated to collect brain. The olfactory bulb, cerebellum and lower brain stem were removed. Blood stains on the surface of the brain were rinsed with normal saline, the residual water stains on the surface were absorbed, and the brain was placed at −80° C. for 7 min. After the brain was taken out, a coronal section was immediately made at downwards and vertical to the sight intersection plane, and brain slices were made every 2 mm backwards. Brain slices were placed in a TTC (20 g/L) dye solution prepared with 0.9% normal saline, and incubated at 37° C. for 90 min. Normal brain tissues were stained deep red, and ischemic brain tissues were pale-white. After rinsed with normal saline, the brain sections were quickly arranged in order from front to back, the residual water stains on the surface were absorbed to dryness, and pictures were taken. Image analysis software was used for statistics on the pictures. […]

Series [6] in a line: Distribution in brain: plasma and intracerebral concentrations after intravenous injection. In kind it is in vivo. Conditions: both sexes, rat, rats, 4 mg/kg iv; for Kp at 10 min / Kp at 60 min / Kp at 180 min: brain/plasma, read-out: Brain/Blood Concentration Ratio. As for the experimental part:
In this example, Compounds A to E, D-bornyl ferulate, and D-tanshinol borneol ester were measured for distribution in brain. Structures of D-bornyl ferulate (Patent Application No.: 201510243181.5) and D-tanshinol borneol ester compounds are as follows:
Method for testing distribution in brain: 42 rats with a weight range of 200±20 g were taken. The rats were randomly divided into 7 groups, with 6 rats per group, half male and half female. Rats were fasted with free access to water for 12 h and then intravenously injected with 4 mg/kg of a compound. Rats in the 3 groups were sacrificed through femoral artery bleeding and collected for blood 10 min, 60 min, 180 min after administration, respectively. Brains were taken out, 0.2 g was weighted, and 1 mL of pure water was added for homogenizing. The blood samples and brain homogenate samples were stored at −20° C.
Distribution of Compounds A to E, and D-bornyl ferulate and D-tanshinol borneol ester compounds in brain: Data on concentrations of Compounds A to E, D-bornyl ferulate, and D-tanshinol borneol ester in plasma and intracerebral in rats intravenously injected with 4 mg/kg of Compounds A to E, D-bornyl ferulate, and D-tanshinol borneol ester are listed in Table 9.

Setting [7] is: brain, read-out: Mean Intracerebral Concentration.
Setting [8] is: plasma, read-out: Mean Plasma Concentration.

Each structure is given as a SMILES string. Where two headings read alike, the source gives them in different places.

Regarding `COc1cc(/C=C/C(=O)O[C@H]2C[C@H]3CC[C@]2(C)C3(C)C)ccc1O` [D-bornyl ferulate, reference compound], in series [1], the “Cerebral Infarction Area” value is 21.7 ± 4.35 and the inhibition in vivo at 4 mg/kg amounted to 40.9%. In series [2], the “Blood viscosity, High Shear” value turned out to be 2.84 ± 0.323 and the “Blood viscosity, Low Shear” value worked out at 13.8 ± 0.574. In addition, in the series with TNF-α, the TNF-α is 658 ± 23.6 ng/L. Besides, the IL-1β with IL-1β is listed as 64.8 ± 5.8 ng/L. In series [3], the inhibition at 4 mg/kg was determined as 46.5% and the “Maximum Aggregation Rate” value is reported as 17.6 ± 4.59 %. For the same compound, in series [4], the inhibition at 4 mg/kg came to 36.4% and the “Maximum Aggregation Rate” value is reported as 45.4 ± 2.64 %. Besides, in series [5], the “Score of Symptoms of Neurological Deficits” value was determined as 1.94 ± 0.19 and the Infarction area is given as 21.68 ± 2.80 %. For the same compound, in series [6], the Kp at 10 min amounted to 0.52, the Kp at 60 min was 5 and the Kp at 180 min turned out to be 5.8. Moreover, in series [6] (setting [7]), the concentration at 10 min was 1490 ± 219 ng/g, the concentration at 60 min stood at 701 ± 136 ng/g and the concentration at 180 min came out at 276 ± 81.3 ng/g. Moreover, in series [6] (setting [8]), the concentration at 10 min stood at 2890 ± 671 ng/mL, the concentration at 60 min turned out to be 138 ± 55 ng/mL and the concentration at 180 min was 47.1 ± 21.6 ng/mL.

Regarding `CC1(C)[C@@H]2CC[C@@]1(C)[C@@H](OC(=O)[C@H](O)Cc1ccc(O)c(O)c1)C2` [D-tanshinol borneol ester, reference compound], in series [1], the “Cerebral Infarction Area” value turned out to be 25.6 ± 4.65 and the inhibition in vivo at 4 mg/kg came to 30.2%. In series [2], the “Blood viscosity, High Shear” value amounted to 2.76 ± 0.134 and the “Blood viscosity, Low Shear” value is reported as 14.1 ± 0.658. This compound gave a TNF-α in the series on TNF-α of 687 ± 35.4 ng/L. Moreover, the IL-1β in the series on IL-1β is 67.1 ± 8.8 ng/L. In series [3], the inhibition at 4 mg/kg came out at 43.8% and the “Maximum Aggregation Rate” value stood at 18.5 ± 4.36 %. Moreover, in series [4], the inhibition at 4 mg/kg was found to be 33.8% and the “Maximum Aggregation Rate” value came to 47.3 ± 4.53 %. Moreover, in series [5], the “Score of Symptoms of Neurological Deficits” value worked out at 1.98 ± 0.17 and the Infarction area stood at 22.76 ± 2.42 %. For the same compound, in series [6], the Kp at 10 min was determined as 0.47, the Kp at 60 min came to 2.6 and the Kp at 180 min worked out at 3.4. Also, in series [6] (setting [7]), the concentration at 10 min is 1040 ± 168 ng/g, the concentration at 60 min stood at 644 ± 99.7 ng/g and the concentration at 180 min came out at 177 ± 35.2 ng/g. In series [6] (setting [8]), the concentration at 10 min turned out to be 2210 ± 546 ng/mL, the concentration at 60 min came to 244 ± 62.4 ng/mL and the concentration at 180 min was 52.8 ± 34.1 ng/mL.
